Source: patent US20250268873A1, “COMBINATION OF DUAL ATM AND DNA-PK INHIBITORS AND IMMUNOTHERAPEUTIC AGENTS FOR USE IN CANCER THERAPY” (XRAD THERAPEUTICS, INC., priority 2021, published 2025)

Columns and labels:
DNA-PK = DNA-PK (Homo sapiens (Human), UniProt P78527); assay: Pharmacodynamic assay, pDNA-PK/DNA-PK in MDA-231 tumors; assay type: in vivo
Method: FADU or MDA-MB-231 cells were harvested during log phase growth for in vivo implantation. The resuspended cells were washed three times in phosphate buffered saline (PBS) before preparing the working dilution in PBS. FADU cells were diluted to 1×10^7 cells/mL and MDA-MB-231 cells were diluted to 5×10^7 cells/mL. Each mouse was injected subcutaneously in the right flank with 100 μL of the cellular suspension. Tumor growth was monitored until the tumors reached a target volume of at least 100 mm^3, at which point mice were randomly stratified into four treatment groups.
Tumor studies were performed as follows. Mice bearing FADU or MDA-231 tumors were pre-dosed with vehicle alone or compound 569 alone at 3, 6, and 10 mg/kg. Tumors were then irradiated with 10 Gy 45 min after vehicle or compound 569 administration or left unirradiated (vehicle and compound 569 at 10 mg/kg). Tumors were harvested 1 h post radiation.
Tissue homogenates for pharmacodynamic analyses were collected and processed as follows. Tumor tissues from FADU or MDA-MB-231 tumors were flash frozen in liquid nitrogen and pulverized on dry ice using a tissue pulverizer. A portion of the tumor powder was transferred into a microtube, followed by addition of 500 μL of RIPA buffer [[…], pH 8.0, 150 mM NaCl, 0.1% SDS, 0.5% sodium deoxycholate, 1% IGEPAL® CA-630 (Sigma, I8896)]. To 10 ml of RIPA buffer, 2 tablets each of Protease inhibitor and Phosphatase inhibitor (Roche, #04693159001 & #04906837001), 200 μL of 0.1 M PMSF and 160 μL of Aprotinin, (Sigma, A6279) were added. The suspension was homogenized on ice with a pellet pestle motor (KONTES) and incubated on ice for 30 minutes. Cell lysates were centrifuged at 13,200 rpm for 15 min at 4° C. and supernatants were transferred to a new tube and analyzed for protein concentration with a BCA kit (Pierce, 23227), followed by immunoblotting.

MC38 tumors = assay: MC38 syngeneic murine tumor model; assay type: in vivo; settings: for Day 20 regression: p<0.05
Method: The murine colon adenocarcinoma cell line, MC38-NCI.TD1 (MC38), was cultured in Dulbecco's modified Eagle's medium (DMEM), 10% fetal bovine serum (FBS), 25 μg/ml gentamicin, 2 mM L-glutamine, 1% penicillin/streptomycin/L-glutamine at 37° C. in 5% CO2. Cells were dissociated in 0.25% trypsin/2.21 mM ethylenediaminetetraacetic acid in Hank's Balanced Salt Solution and brought to a density of 5×10^6 cells/200 μL in DMEM. Tumors were initiated by injection of the cell suspension subcutaneously in the right axilla of female C57BL/6 mice (Jackson Laboratory). All mice were sorted into 7 study groups (n=10) based on caliper estimation of tumor burden. Mice were distributed to ensure that the mean tumor burden for all groups was within 10% of the overall mean tumor burden for the study population (90 mm^3). Mice were monitored daily for clinical signs and weighed and measured three times weekly. The study endpoint was 30 days post staging or when tumor burden was >2000 mm^3.
The vehicle for compound 569 was 0.5% hydroxypropyl methyl cellulose (HPMC) and 0.1% Tween 80 dissolved in deionized water. Vehicle for compound 569 and compound 569 (12 mg/kg) were administered by oral gavage once daily starting the day of staging for two consecutive days (qd×2), in combination with focal radiation. Mice stratified to the radiation therapy groups received 5 Gy per day for two consecutive days (qd×2) 60 minutes following administration of the vehicle or compound 569. The mice were anesthetized with isoflurane during the radiation treatment, which was performed with the Xstrahl Life Sciences Small Animal Radiation Research Platform (Xstrahl, Inc.) Mice were irradiated at an average dose rate of 2.5 Gy/min.
The vehicle for isotype control (clone 2A3) anti-mouse PD-1 (anti-mPD-1; Bio X Cell) and anti-mPD-1 (Clone RMP1-14; Bio X Cell) was phosphate buffered saline (PBS). Isotype control anti-mPD-1 (10 mg/kg) and anti-mPD-1 (10 mg/kg) were administered intraperitonealy twice weekly for 2 weeks starting day 2 post staging. Treatment schedules for the various groups of animals are summarized below: • Group 1 mice received vehicle qd×2+10 mg/kg isotype control (q3d×2, 3 days off)×2; start 2 days post stage. • Group 2 mice received 10 mg/kg anti-mPD-1 (q3d×2, 3 days off)×2; start 2 days post stage. • Group 3 mice received focal irradiation 5 Gy qd×2+10 mg/kg isotype control (q3d×2, 3 days off)×2; start 2 days post stage. • Group 4 mice received focal irradiation 5 Gy qd×2+10 mg/kg anti-mPD-1 (q3d×2, 3 days off)×2; start 2 days post stage. • Group 5 mice received 12 mg/kg Compound 569 qd×2 (1 hr prior to focal irradiation)+5 Gy qd×2 • Group 6 mice received 12 mg/kg Compound 569 qd×2+10 mg/kg anti-mPD-1 (q3d×2, 3 days off)×2; start 2 days post stage. • Group 7 mice received 12 mg/kg Compound 569 qd×2 (1 hr prior to focal irradiation)+5 Gy qd×2+10 mg/kg anti-mPD-1 (q3d×2, 3 days off)×2; start 2 days post stage.
• ΔC and ΔT—Are individual mouse endpoints that are calculated for each mouse as follows:
[formula] • Where Tt and T0 are the tumor burdens of a treated mouse at time t or at the initiation of dosing, respectively. ΔC reflects similar calculations for the control mice. • Median ΔT/ΔC—Is a group endpoint. It is calculated for each day of treatment as:
[formula] • The results are presented as a %. When the median ΔT/ΔC is negative (the median treated tumor burden is regressing), the median ΔT/ΔC is not reported and the Median % Regression is reported instead. • % Regression—Is a group endpoint. It indicates the percentage reduction in the Median tumor volume from baseline. It is calculated as: […]
Day 20 post staging was chosen for ΔT/ΔC since it was the last day all animals were on study prior to euthanasia due to tumor burden. • Complete Regression (CR)—An animal is credited a complete regression if its tumor burden is reduced to an immeasurable volume at any point after the first treatment. […]

[1] = Group 5: compound 569 12 mg/kg qd×2 + radiation 5 Gy qd×2
[2] = Group 7: compound 569 + radiation + anti-mPD-1

Molecule `CC(C)NCCOc1ncc(-c2cc3c4c(cnc3cc2F)N(C)C(=O)C42CCC2)cc1NS(C)(=O)=O` [Compound 569, N-(5-(7′-Fluoro-3′-methyl-2′-oxo-2′,3′-dihydrospiro[cyclobutane-1,1′-pyrrolo[2,3-c]quinolin]-8′-yl)-2-(2-(isopropylamino)ethoxy)pyridin-3-yl)methanesulfonamide] has a pDNA-PK/DNA-PK (DNA-PK; 10 Gy, 3 mg/kg oral) of 0.889, a pDNA-PK/DNA-PK (DNA-PK; 10 Gy, 6 mg/kg oral) of 0.670 and a pDNA-PK/DNA-PK (DNA-PK; 10 Gy, 10 mg/kg oral) of 0.454. For the same molecule, the pDNA-PK/DNA-PK (DNA-PK; no radiation, 10 mg/kg oral) was 0.223, the “incidence of complete regressions (CR)” value (MC38 tumors; [1]) was 50% and the “incidence of tumor free survivors (TFS)” value (MC38 tumors; [1]) was 30%. The “Day 20 regression” value (MC38 tumors; [1]) was 22%, the “Day 20 median ΔT/ΔC” value (MC38 tumors; Group 6: compound 569 12 mg/kg po qd×2 + anti-mPD-1 10 mg/kg ip, p>0.05) was 64% and the incidence of death (MC38 tumors; Group 6: compound 569 12 mg/kg qd×2 + anti-mPD-1 10 mg/kg, 1 death, n=10) was 10%. For the same molecule, the “Day 20 regression” value (MC38 tumors; Group 7: compound 569 12 mg/kg qd×2 + radiation 5 Gy qd×2 + anti-mPD-1 10 mg/kg) was 99%, the “incidence of complete regressions (CR)” value (MC38 tumors; [2]) was 90% and the “incidence of tumor free survivors (TFS)” value (MC38 tumors; [2]) was 90%.
